Assay results: patent US20180125856A1, “USE OF GLUCOCORTICOID RECEPTOR ANTAGONIST AND SOMATOSTATIN ANALOGUES TO TREAT ACTH-SECRETING TUMORS” (Corcept Therapeutics, Inc., priority 2015, published 2018)

System: human patient with an ectopic ACTH-secreting pancreatic neuroendocrine tumor
Assay: Tolerability in a patient
Assay type: in vivo
Conditions: week 20, octreotide LAR continued
Excerpt: Mifepristone was resumed for an additional 12-month extension period. […] The collection of cortisol and ACTH data was less frequent during the extension study.

SMILES: CC#C[C@]1(O)CC[C@H]2[C@@H]3CCC4=CC(=O)CCC4=C3[C@@H](c3ccc(N(C)C)cc3)C[C@@]21C [mifepristone, 17-β-hydrox-11-β-(4-dimethyl-aminophenyl)17-α-(1-propynyl)estra-4,9-dien-3-one]
- adverse events for which the drug was briefly stopped: significant fatigue, low appetite, and nausea
